Results as given in PMC10099431 (ACS Omega, 2023).
Like-named read-outs stand apart in the source and are kept apart here.

Tests used:
[1] = Equilibrium mole fraction solubility of RST in {PEG400; assay type: physicochemical
[2] = assay type: physicochemical; details: 298.15 K; for Gibbs energy of transfer of RST from neat water to the mixture / ΔsolnG°, standard Gibbs free energy of dissolution: 0.1 MPa
[3] = assay type: physicochemical; details: for 100 δx1,3 (preferential solvation parameter of RST by PEG400) / D (derivative of the Gibbs energy of transfer) / G1,3 (Kirkwood–Buff integral, PEG400–RST) / G2,3 (Kirkwood–Buff integral, water–RST) / Vcor (correlation volume): 298.15 K, 0.1 MPa

## CC(C)c1nc(N(C)S(C)(=O)=O)nc(-c2ccc(F)cc2)c1/C=C/[C@@H](O)C[C@@H](O)CC(=O)[O-].CC(C)c1nc(N(C)S(C)(=O)=O)nc(-c2ccc(F)cc2)c1/C=C/[C@@H](O)C[C@@H](O)CC(=O)[O-].[Ca+2] [RST, (E)-7-[4-(4-fluorophenyl)-6-isopropyl-2-[methyl(methylsulfonyl)amino]pyrimidin-5-yl]-(3R,5S)-3,5-dihydroxyhept-6-enoic acid, calcium salt (2:1)]
[1]; PEG400
  solubility at 3 days: 6500 µg/mL
[1]; PEG400 + water cosolvent mixture
  solubility at 3 days: 4140 µg/mL
[2]; all mixtures
  Gibbs energy of transfer of RST from neat water to {PEG400 + water} mixtures, range: −2.39 to −14.24 kJ·mol^–1
[2]; w1 = 0.00 (neat water)
  Gibbs energy of transfer of RST from neat water to the mixture: 0.00 kJ·mol^–1
  ΔsolnG°, standard Gibbs free energy of dissolution: 32.36 kJ·mol^–1
[2]; w1 = 0.10 PEG400
  Gibbs energy of transfer of RST from neat water to the mixture: –2.39 kJ·mol^–1
  ΔsolnG°, standard Gibbs free energy of dissolution: 29.97 kJ·mol^–1
[2]; w1 = 0.20 PEG400
  Gibbs energy of transfer of RST from neat water to the mixture: –3.53 kJ·mol^–1
  ΔsolnG°, standard Gibbs free energy of dissolution: 28.83 kJ·mol^–1
[2]; w1 = 0.30 PEG400
  Gibbs energy of transfer of RST from neat water to the mixture: –5.49 kJ·mol^–1
  ΔsolnG°, standard Gibbs free energy of dissolution: 26.86 kJ·mol^–1
[2]; w1 = 0.40 PEG400
  Gibbs energy of transfer of RST from neat water to the mixture: –7.93 kJ·mol^–1
  ΔsolnG°, standard Gibbs free energy of dissolution: 24.42 kJ·mol^–1
[2]; w1 = 0.50 PEG400
  Gibbs energy of transfer of RST from neat water to the mixture: –8.49 kJ·mol^–1
  ΔsolnG°, standard Gibbs free energy of dissolution: 23.87 kJ·mol^–1
[2]; w1 = 0.60 PEG400
  Gibbs energy of transfer of RST from neat water to the mixture: –8.94 kJ·mol^–1
  ΔsolnG°, standard Gibbs free energy of dissolution: 23.42 kJ·mol^–1
[2]; w1 = 0.70 PEG400
  Gibbs energy of transfer of RST from neat water to the mixture: –9.46 kJ·mol^–1
  ΔsolnG°, standard Gibbs free energy of dissolution: 22.90 kJ·mol^–1
[2]; w1 = 0.80 PEG400
  Gibbs energy of transfer of RST from neat water to the mixture: –10.34 kJ·mol^–1
  ΔsolnG°, standard Gibbs free energy of dissolution: 22.02 kJ·mol^–1
[2]; w1 = 0.90 PEG400
  ΔsolnG°, standard Gibbs free energy of dissolution: 21.15 kJ·mol^–1
[2]; w1 = 1.00 (neat PEG400)
  Gibbs energy of transfer of RST from neat water to the mixture: –14.24 kJ·mol^–1
  ΔsolnG°, standard Gibbs free energy of dissolution: 18.12 kJ·mol^–1
[3]; calculated from molar volume
  molecular radius r3: 0.5 nm
[3]; x1 = 0.00
  100 δx1,3 (preferential solvation parameter of RST by PEG400): 0.00
  D (derivative of the Gibbs energy of transfer): –328.34 kJ·mol^–1
  G1,3 (Kirkwood–Buff integral, PEG400–RST): –2707.6 cm^3·mol^–1
  G2,3 (Kirkwood–Buff integral, water–RST): –313.7 cm^3·mol^–1
  Vcor (correlation volume): 1163 cm^3·mol^–1
[3]; x1 = 0.05
  100 δx1,3 (preferential solvation parameter of RST by PEG400): 0.01
  D (derivative of the Gibbs energy of transfer): –31.52 kJ·mol^–1
  G1,3 (Kirkwood–Buff integral, PEG400–RST): –488.9 cm^3·mol^–1
  G2,3 (Kirkwood–Buff integral, water–RST): –491.2 cm^3·mol^–1
  Vcor (correlation volume): 1589 cm^3·mol^–1
[3]; x1 = 0.10
  100 δx1,3 (preferential solvation parameter of RST by PEG400): 0.31
  D (derivative of the Gibbs energy of transfer): –9.90 kJ·mol^–1
  G1,3 (Kirkwood–Buff integral, PEG400–RST): –358.4 cm^3·mol^–1
  G2,3 (Kirkwood–Buff integral, water–RST): –412.8 cm^3·mol^–1
  Vcor (correlation volume): 1980 cm^3·mol^–1
[3]; x1 = 0.15
  100 δx1,3 (preferential solvation parameter of RST by PEG400): 0.71
  D (derivative of the Gibbs energy of transfer): –10.32 kJ·mol^–1
  G1,3 (Kirkwood–Buff integral, PEG400–RST): –353.1 cm^3·mol^–1
  G2,3 (Kirkwood–Buff integral, water–RST): –458.2 cm^3·mol^–1
  Vcor (correlation volume): 2343 cm^3·mol^–1
[3]; x1 = 0.20
  100 δx1,3 (preferential solvation parameter of RST by PEG400): 1.05
  D (derivative of the Gibbs energy of transfer): –9.89 kJ·mol^–1
  G1,3 (Kirkwood–Buff integral, PEG400–RST): –346.4 cm^3·mol^–1
  G2,3 (Kirkwood–Buff integral, water–RST): –492.0 cm^3·mol^–1
  Vcor (correlation volume): 2680 cm^3·mol^–1
[3]; x1 = 0.25
  100 δx1,3 (preferential solvation parameter of RST by PEG400): 1.29
  D (derivative of the Gibbs energy of transfer): –8.96 kJ·mol^–1
  G1,3 (Kirkwood–Buff integral, PEG400–RST): –339.9 cm^3·mol^–1
  G2,3 (Kirkwood–Buff integral, water–RST): –513.6 cm^3·mol^–1
  Vcor (correlation volume): 2997 cm^3·mol^–1
[3]; x1 = 0.30
  100 δx1,3 (preferential solvation parameter of RST by PEG400): 1.45
  D (derivative of the Gibbs energy of transfer): –7.95 kJ·mol^–1
  G1,3 (Kirkwood–Buff integral, PEG400–RST): –334.6 cm^3·mol^–1
  G2,3 (Kirkwood–Buff integral, water–RST): –529.0 cm^3·mol^–1
  Vcor (correlation volume): 3297 cm^3·mol^–1
[3]; x1 = 0.35
  100 δx1,3 (preferential solvation parameter of RST by PEG400): 1.54
  D (derivative of the Gibbs energy of transfer): –7.01 kJ·mol^–1
  G1,3 (Kirkwood–Buff integral, PEG400–RST): –330.5 cm^3·mol^–1
  G2,3 (Kirkwood–Buff integral, water–RST): –542.0 cm^3·mol^–1
  Vcor (correlation volume): 3585 cm^3·mol^–1
[3]; x1 = 0.40
  100 δx1,3 (preferential solvation parameter of RST by PEG400): 1.60
  D (derivative of the Gibbs energy of transfer): –6.19 kJ·mol^–1
  G1,3 (Kirkwood–Buff integral, PEG400–RST): –327.6 cm^3·mol^–1
  G2,3 (Kirkwood–Buff integral, water–RST): –554.7 cm^3·mol^–1
  Vcor (correlation volume): 3863 cm^3·mol^–1
